Experimental data: patent publication US8193224B2, “Medicinal composition for prevention or treatment of parasitic protozoan infection” (Fujifilm Corporation, priority 2004, dated 2012)

What was measured:
Assay type in all cases: cell-based
[1] = tested on: Leishmania donovani (MHOM/ET/67/L82 strain); test: Leishmania protozoa growth inhibition screening test; details: chemotherapy index = EC50 rat L6 cells / EC50 leishmania protozoa
[2] = tested on: Plasmodium falciparum K1 strain; test: Chloroquine resistant-Plasmodium falciparum growth inhibition screening test; details: for EC50: Plasmodium falciparum, 72 h, chloroquine resistant K1 strain, 3H-hypoxanthine, 48 + 24 hours, read-out: 50% growth inhibition concentration P. falciparum K1; for Selective toxicity: chemotherapy index = EC50 rat L6 cells / EC50 chloroquine resistant P. falciparum
Method: In the present example, protozoa of Plasmodium falciparum K1 strain was used. RPMI-1640 medium sterilized with a filter to which human serum was added to be 5%, was used in the experiment. Malarial parasites were cultured under 3% O2 concentration, 4% Co2 concentration, 93% N2 concentration, and at a temperature of 37° C.
The compounds of the present invention to be used in the present test and the positive target drug (chloroquine) were dissolved in DMSO to make a test solution of a predetermined concentration. Cultured malarial parasite infected-erythrocytes were collected by centrifugation, and diluted with non-infected erythrocyte so that the early infection rate is 0.15%. Hematocrit level at that time was 2.5%. 200 μL of malaria infected solution was added to wells of a 96-well culture plate, and adjusted by adding a test solution containing drug of a predetermined concentration or a drug-free DMSO. Test solutions were taken by duplicates. After culturing for 48 hours at 37° C., 0.5 μCi radioactive tritium (3H)-labeled hypoxanthine was added to each well. After further culturing for 24 hours under the same conditions, it was collected on a glass fiber filter and washed with distilled water. Radiation intensity was measured with a beta plate liquid scintillation counter (Wallac), and malarial parasite infection rates of the test solution added group and of the control group were calculated. Growth inhibition rate was calculated with the following formula based on the malarial parasite infection rate obtained in the above, to obtain a 50% growth inhibition concentration (EC50). Growth inhibition rate (%)={1−(b−a)/(c−a)}×100 a: early infection rate b: infection rate when test solution was added c: infection rate of the control

[3] = tested on: Trypanosoma brucei rhodensiense (STIB 900 strain); test: African trypanosome protozoa growth inhibition screening test; details: chemotherapy index = EC50 rat L6 cells / EC50 African trypanosome protozoa
[4] = Growth inhibition test of rat L6 cells; details: L6 cells (rat skeletal myoblast), Alamar Blue (Table 2), read-out: 50% growth inhibition concentration Cytotoxicity L6
Method: Rat derived-L6 cells (rat skeletal myoblast cell) were used. As medium, RPMI1640 medium was supplemented so that L-glutamin (200 mM) is 1%, and fetal bovine serum 10%, and the medium was cultured under CO2 concentration 5%, at 37° C. The compounds of the present invention and the target drugs to be used in the test were dissolved in DMSO, to make a test solution of a predetermined concentration. Pre-culture was conducted and medium containing cells which have entered the logarithmic growth phase was taken to wells of a 96-well culture plate. Then, a test solution containing drug of a predetermined concentration or a drug-free DMSO was added. Test solutions were taken by duplicates. Culture plate was cultured for 72 hours in an incubator, to test the growth inhibition activity. Test was conducted as follows.
10 μl of Alamar Blue aqueous solution was added to each well, and the resultant was further cultured for 2 hours. Next, the culture plate was placed on a fluorescent micro-plate reader (Spectramax Gemeni XS; US Molecular Device), radiated at an excited wavelength of 536 nm. Fluorescent intensity was measured at 588 nm, and residual rate of L6 cells of the test solution added group, and that of the control was calculated. Based on the cell residual rate obtained in the above, growth inhibition rate to L6 cells was calculated, to obtain a 50% growth inhibition concentration (EC50). Growth inhibition rate (%)={(C−A)/(B−A)}×100 A: primary cell count B: cell count of control, 3 days after C: cell count of wells added with a sample, 3 days after […]

[5] = tested on: Trypanosoma brucei rhodensiense (STIB 900 strain); test: African trypanosome protozoa growth inhibition screening test; details: Trypanosoma brucei, STIB900; STIB 900 strain, blood stream form, 72 hours, Alamar Blue; read-out: 50% growth inhibiting concentration Trypanosoma brucei rhod.
Method: In the present example, protozoa of Trypanosoma brucei rhodensiense (STIB 900 strain), a trypamastigote living in blood stream, was used. The medium used in the experiment was a MEM medium which was sterilized with a filter and supplemented with 25 mM N-2-hydroxyethylpiperazine-2-ethansulfonic acid […]), 1 g/L glucose, 1% MEM non-essential amino acid, 0.2 mM 2-mercaptoethanol, 2 mM sodium pyruvate, 0.1 mM hypoxanthine, and 15% heat-treated horse serum. The protozoa was cultured in an atmosphere of CO2 concentration 5%, at a temperature of 37° C.
The compounds of the present invention to be used in the present test and the positive target drug (melarsoprol) were dissolved in DMSO to make a test solution of a predetermined concentration. A medium containing 8×10^3 protozoa, and a test solution containing a drug of a predetermined concentration or a drug-free DMSO were added to wells of a 96-well culture plate, and subsequently, medium was added so that the amount in each well becomes 100 μL. Test solutions were taken by duplicates. After culturing the culture plate for 72 hours in an incubator, growth inhibition activity was tested. Test was conducted as follows. 10 μL of Alamar Blue aqueous solution was added to each well, and the resultant was further cultured for 2 hours. Next, the culture plate was placed on a fluorescent micro-plate reader (Spectramax Gemeni XS; US Molecular Device), radiated at an excited wavelength of 536 nm. Fluorescent intensity was measured at 588 nm, to calculate the trypanosome protozoa infected rate of the test solution added-group, and of the control group. From the protozoan infection rate obtained in the above, growth inhibition rate was calculated with the following formula, to obtain a 50% growth inhibition concentration (EC50). Growth inhibition rate (%)={1−(b−a)/(c−a)}×100 a: early infection rate b: infection rate when test solution was added c: infection rate of the control

Row | Compound | Selective toxicity [1] | EC50 [2] | Selective toxicity [2] | Selective toxicity [3] | EC50 at 72 h [4] | EC50 [5]
1 | CCN1/C(=C/C=c2\s/c(=C\c3sc4c5ccccc5ccc4[n+]3CC)n(CC)c2=O)Sc2ccc3ccccc3c21 [A-1] | 3600 | 11 nM | 2700 | 1900 | 30000 nM | 16 nM
2 | CCN1/C(=C/C=c2\s/c(=C\C3=[N+](CC)CCS3)n(CC)c2=O)C=Cc2ccccc21 [A-10] | 130 | 120 nM | 170 | 100 | 20000 nM | 200 nM
3 | CCN1C(C)=CS/C1=C\C=c1/s/c(=C\c2sc3ccccc3[n+]2CC)n(CC)c1=O [A-15] | 130 | 76 nM | 291 | 250 | 22000 nM | 89 nM
